Like-named read-outs stand apart in the source and are kept apart here. Marks after values point to notes of the source that are not given here.

Test [1] addresses T1, rat lens aldose reductase (RLAR) (Rattus norvegicus, UniProt P07943).
T1 construct: from tissue; host or cells: lens of Sprague-Dawley rats (supernatant of homogenate)
Description: RLAR inhibitory activity assay (rat lens homogenate, DL-glyceraldehyde substrate). Type of test: biochemical. Particulars: for RLAR inhibitory activity (in words): at the concentrations tested. The procedure: A rat lens homogenate was prepared with minor modifications according to the method reported by Hayman et al.. Briefly, the lenses were removed from the eyes of Sprague-Dawley rats weighing 250–280 g. They were homogenized in sodium phosphate buffer (pH 6.2) that was prepared with dibasic sodium phosphate (Na2HPO4∙H2O, 0.66 g) and monobasic sodium phosphate (NaH2PO4∙H2O, 1.27 g) in 100 mL of double-distilled H2O. The homogenate was clarified by centrifugation at 10,000 rpm at 4 °C for 20 min and the resultant supernatant was frozen until use. A crude AR homogenate with a specific activity of 6.5 U/mg was used in all enzyme inhibition evaluations. The reaction solution consisted of 620 µL of 100 mM sodium phosphate buffer (pH 6.2), 90 µL of AR homogenate, 90 µL of 1.6 mM NADPH, and 9 µL of sample, while the substrate included 90 µL of 50 mM DL-glyceraldehyde. […] AR activity was determined by measuring the decrease in NADPH absorption at 340 nm over a 4 min period on an Ultrospec®2100pro UV/Visible spectrophotometer. SWIFT II Applications software (Amersham Biosciences, NJ, USA) was used for all data analyses. The inhibition percentage (%) was calculated as follows in Equation (1):[1 − (∆Asample/min − ∆Ablank/min)/(∆Acontrol/min − ∆Ablank/min)] × 100(1) in which ∆Asample/min represents the test sample and substrate’s reduction in absorbance over 4 min, and ∆A control/min represents the same reduction in absorbance, but with 100% DMSO (dimethyl sulfoxide) rather than the test sample.

The target in test [2] is T2, human recombinant aldose reductase (HRAR) (Homo sapiens, UniProt P15121).
T2 construct: purchased Wako Chemicals (Osaka, Japan)
Description: HRAR inhibition assay (DL-glyceraldehyde substrate). It counts as biochemical. Particulars: for HRAR inhibitory activity (in words): at the concentrations tested. The protocol:
HRAR inhibition was studied according to Nishimura et al.. AR action was studied by measuring the reduction in NADPH absorption at 340 nm over a period of 1 min on a UV/visible spectrophotometer (Ultrospec®2100pro, Biochrom, Holliston, MA, USA). For HRAR inhibition, the HRAR enzyme (0.4 units), was used in all enzyme inhibition evaluations. […] The inhibition percentage (%) was measured as designated in the RLAR assay. The DA sample/min value characterizes the decrease in absorbance for 1 min with the test samples and substrate. The ability of each sample to inhibit HRAR was observed as an IC50 value (µM) and measured from the log-dose inhibition curve.

In test [3] the test system is sorbitol accumulation in rat lens. Description: Lens culture and intracellular sorbitol measurement (ex vivo). Type of test: cell-based, Sprague-Dawley rats. Particulars: 25 mM glucose, 6 days, sample 5 μg/mL, mean ± SD (n = 3).
Where [4] appears, read: rat lens homogenate, substrate DL-glyceraldehyde, mean ± S.E.M. of triplicate experiments, read-out: RLAR IC50.
Where [5] appears, read: substrate DL-glyceraldehyde, mean ± S.E.M. of triplicate experiments, read-out: HRAR IC50.

For `CC(C)=CCC[C@](C)(O[C@@H]1O[C@H](CO[C@@H]2O[C@@H](CO)[C@H](O)[C@H]2O[C@@H]2OC[C@@H](O)[C@H](O)[C@H]2O)[C@@H](O)[C@H](O)[C@H]1O)[C@H]1CC[C@]2(C)[C@@H]1[C@H](O)C[C@@H]1[C@@]3(C)CC[C@H](O[C@@H]4O[C@H](CO)[C@@H](O)[C@H](O)[C@H]4O[C@@H]4O[C@H](CO)[C@@H](O)[C@H](O)[C@H]4O)C(C)(C)[C@@H]3CC[C@]12C` [Ginsenoside Ra2], the IC50 in test [1] (setting [4]) was 178 ± 7.39 µM; in test [2] (setting [5]), 82.43 ± 0.44 µM.
`CC(C)=CCC[C@](C)(O[C@@H]1O[C@H](CO[C@@H]2O[C@@H](CO)[C@H](O)[C@H]2O)[C@@H](O)[C@H](O)[C@H]1O)[C@H]1CC[C@]2(C)[C@@H]1[C@H](O)C[C@@H]1[C@@]3(C)CC[C@H](O[C@@H]4O[C@H](CO)[C@@H](O)[C@H](O)[C@H]4O[C@@H]4O[C@H](CO)[C@@H](O)[C@H](O)[C@H]4O)C(C)(C)[C@@H]3CC[C@]12C` [Ginsenoside Rc]: the “RLAR inhibitory activity (in words)” value in test [1] was “inactive”. In addition, the IC50 in test [1] (setting [4]) was > 200 µM; in test [2] (setting [5]), 56.6 ± 2.19 µM.
Regarding `CC(=O)OC[C@H]1O[C@@H](O[C@H]2[C@H](O[C@H]3CC[C@@]4(C)C(CC[C@]5(C)C4C[C@@H](O)[C@@H]4C([C@](C)(CCC=C(C)C)O[C@@H]6O[C@H](CO[C@@H]7O[C@@H](CO)[C@H](O)[C@H]7O)[C@@H](O)[C@H](O)[C@H]6O)CC[C@]45C)C3(C)C)O[C@H](CO)[C@@H](O)[C@@H]2O)[C@H](O)[C@@H](O)[C@@H]1O` (some centres unmarked) [Ginsenoside Rs2], the IC50 in test [1] (setting [4]) is 149 ± 4.22 µM; in test [2] (setting [5]), > 100 µM. Moreover, in test [2], the “HRAR inhibitory activity (in words)” value was “inactive”.
As for `CC(C)=CCC[C@](C)(O[C@@H]1O[C@H](CO[C@@H]2OC[C@@H](O)[C@H](O)[C@H]2O)[C@@H](O)[C@H](O)[C@H]1O)[C@H]1CC[C@]2(C)[C@@H]1[C@H](O)C[C@@H]1[C@@]3(C)CC[C@H](O[C@@H]4O[C@H](CO)[C@@H](O)[C@H](O)[C@H]4O[C@@H]4O[C@H](CO)[C@@H](O)[C@H](O)[C@H]4O)C(C)(C)[C@@H]3CC[C@]12C` [Ginsenoside Rb3], the IC50 in test [1] (setting [4]) came out at 117 ± 6.89 µM; in test [2] (setting [5]) it was 79 ± 4.55 µM.
For `CC(C)=CCC[C@](C)(O[C@@H]1O[C@H](CO)[C@@H](O)[C@H](O)[C@H]1O)[C@H]1CC[C@]2(C)[C@@H]1[C@H](O)C[C@@H]1[C@@]3(C)CC[C@H](O)C(C)(C)[C@@H]3[C@@H](O[C@@H]3O[C@H](CO)[C@@H](O)[C@H](O)[C@H]3O)C[C@]12C` [Ginsenoside Rg1], the values for the IC50 in test [1] (setting [4]) and in test [2] (setting [5]) were 49.5 ± 1.88 µM and 27.6 ± 2.12 µM, respectively.
Taken in the same sequence, the figures for `CC(C)=CCC[C@](C)(O[C@@H]1O[C@H](CO)[C@@H](O)[C@H](O)[C@H]1O)[C@H]1CC[C@]2(C)[C@@H]1[C@H](O)C[C@@H]1[C@@]3(C)CC[C@H](O)C(C)(C)[C@@H]3[C@@H](O[C@@H]3O[C@H](CO)[C@@H](O)[C@H](O)[C@H]3O[C@@H]3O[C@@H](C)[C@H](O)[C@@H](O)[C@H]3O)C[C@]12C` [Ginsenoside Re] were 81.3 ± 2.18 µM and 43.4 ± 3.11 µM.
Turning to `O=C(O)Cn1c(=O)n(Cc2ccc(Br)cc2F)c(=O)c2ccc(Cl)cc21` [Zenaresta, Zenarestat, reference compound], in test [2], the IC50 was found to be 0.69 ± 0.11 µM.
Consider `CC(C)=CCC[C@](C)(O[C@@H]1O[C@H](CO)[C@@H](O)[C@H](O)[C@H]1O)[C@H]1CC[C@]2(C)[C@@H]1[C@H](O)C[C@@H]1[C@@]3(C)CC[C@H](O[C@@H]4O[C@H](CO)[C@@H](O)[C@H](O)[C@H]4O[C@@H]4O[C@H](CO)[C@@H](O)[C@H](O)[C@H]4O)C(C)(C)[C@@H]3CC[C@]12C` [Ginsenoside Rd], for which the IC50 came out at 89.6 ± 2.99 µM in test [1] (setting [4]) and 37.5 ± 1.33 µM in test [2] (setting [5]).
Turning to `CC(C)=CC/C=C(\C)[C@H]1CC[C@]2(C)[C@@H]1[C@H](O)C[C@@H]1[C@@]3(C)CC[C@H](O[C@@H]4O[C@H](CO)[C@@H](O)[C@H](O)[C@H]4O[C@@H]4O[C@H](CO)[C@@H](O)[C@H](O)[C@H]4O)C(C)(C)[C@@H]3CC[C@]12C` [Ginsenoside Rg5], the figures for the IC50 in test [1] and in test [2] were 54.5 ± 1.22 µM and 38.6 ± 2.91 µM, respectively.
For `CC(=O)OC[C@H]1O[C@@H](O[C@H]2[C@H](O[C@H]3CC[C@@]4(C)C(CC[C@]5(C)C4C[C@@H](O)[C@@H]4C([C@](C)(CCC=C(C)C)O[C@@H]6O[C@H](CO[C@@H]7OC[C@H](O)[C@H](O)[C@H]7O)[C@@H](O)[C@H](O)[C@H]6O)CC[C@]45C)C3(C)C)O[C@H](CO)[C@@H](O)[C@@H]2O)[C@H](O)[C@@H](O)[C@@H]1O` (some centres unmarked) [Ginsenoside Rs1], the IC50 in test [1] (setting [4]) is 143 ± 3.77 µM; in test [2] (setting [5]) it was > 100 µM. In addition, the “HRAR inhibitory activity (in words)” value in test [2] was “inactive”.
`O=c1c(O)c(-c2ccc(O)c(O)c2)oc2cc(O)cc(O)c12` [Quercetin, reference compound]: in test [3], the “Sorbitol Content (mg)/Lens Wet Weight (g)” value was 0.22 ± 0.01 ^a mg/g. In test [3] (Rattus norvegicus, 144 h), this molecule gave an inhibition at 5 µg/mL of 87.2 ± 3.91%.
In the case of `CC(C)=CCC[C@](C)(O[C@@H]1O[C@H](CO[C@@H]2OC[C@H](O[C@@H]3OC[C@@H](O)[C@H](O)[C@H]3O)[C@H](O)[C@H]2O)[C@@H](O)[C@H](O)[C@H]1O)[C@H]1CC[C@]2(C)[C@@H]1[C@H](O)C[C@@H]1[C@@]3(C)CC[C@H](O[C@@H]4O[C@H](CO)[C@@H](O)[C@H](O)[C@H]4O[C@@H]4O[C@H](CO)[C@@H](O)[C@H](O)[C@H]4O)C(C)(C)[C@@H]3CC[C@]12C` [Ginsenoside Ra1], the “RLAR inhibitory activity (in words)” value in test [1] is “inactive”. The IC50 in test [1] (setting [4]) was > 200 µM; in test [2] (setting [5]), 75.6 ± 4.33 µM.
With `CC(C)=CCC[C@](C)(O[C@@H]1O[C@H](CO[C@@H]2OC[C@H](O)[C@H](O)[C@H]2O)[C@@H](O)[C@H](O)[C@H]1O)[C@H]1CC[C@]2(C)[C@@H]1[C@H](O)C[C@@H]1[C@@]3(C)CC[C@H](O[C@@H]4O[C@H](CO)[C@@H](O)[C@H](O)[C@H]4O[C@@H]4O[C@H](CO)[C@@H](O)[C@H](O)[C@H]4O)C(C)(C)[C@@H]3CC[C@]12C` [Ginsenoside Rb2], the IC50 in test [1] (setting [4]) is 121 ± 3.43 µM; in test [2] (setting [5]), > 100 µM. Moreover, the “HRAR inhibitory activity (in words)” value in test [2] is “inactive”.
For `CC(C)=CCC[C@](C)(O[C@@H]1O[C@H](CO[C@@H]2O[C@H](CO)[C@@H](O)[C@H](O)[C@H]2O)[C@@H](O)[C@H](O)[C@H]1O)[C@H]1CC[C@]2(C)[C@@H]1[C@H](O)C[C@@H]1[C@@]3(C)CC[C@H](O[C@@H]4O[C@H](CO)[C@@H](O)[C@H](O)[C@H]4O[C@@H]4O[C@H](CO)[C@@H](O)[C@H](O)[C@H]4O)C(C)(C)[C@@H]3CC[C@]12C` [Ginsenoside Rb1], the IC50 in test [1] (setting [4]) amounted to 103 ± 7.45 µM; in test [2] (setting [5]), 93.3 ± 5.76 µM.

For orientation: IC50 means the concentration needed to halve the response being measured. One may read the inhibition as how much of the control response was suppressed. Lower therefore signals little suppression.
